# Measurements as given in PMC8958510 (Journal of Medicinal Chemistry, 2022).
# Where two headings read alike, the source gives them in different places.
# Legend:
# [1] = PAMPA-BBB assay for brain permeability; details: for BBB permeation class: PAMPA-BBB prediction; for Papp: pig, PAMPA
# Protocol: PAMPA-BBB assay for brain permeability. The brain permeability (Pe) of the target
# compounds was assessed by an in vitro parallel artificial membrane permeability assay for
# blood‒brain barrier penetration (PAMPA-BBB assay),12 which uses a lipid extract of porcine
# brain membrane as a BBB model. The assay was validated by comparing experimental and
# reported Pe values of a set of fourteen commercial drugs (Table S2 of the Supporting
# On the basis of this equation and the limits established by Di et al. for BBB
# independent experiments, each performed in triplicate, were carried out for each compound.
# [2] = Microsomal stability, human liver microsomes; type: in vitro ADME; details: human, liver microsomes (pooled), pH 7.4; for remaining at 1 h: after 1 h of incubation at 37 °C, read-out: % remaining compound, human microsomes
# Protocol: (§1) Microsomal stability screen. The microsomal stability of the target compounds was
# (§2) determined at the Innopharma Drug Screening and Pharmacogenomics Platform (Santiago de
# (§3) Compostela, Spain). The human, rat and mice pooled microsomes, with a protein content of 20 mg mL‒1, were purchased from Tebu-Xenotech. The compounds were incubated in a 96-well microplate at 37 °C with the microsomes in 50 mM phosphate buffer (pH = 7.4) containing as cofactors 30 mM MgCl2, 10 mM NADP, 100 mM glucose-6-phosphate and 40
# (§4) Samples (75 µL) were taken from each well at 0, 10, 20, 40 and 60 min and transferred to a microplate. 4 °C Acetonitrile (75 µL) and internal standard (rolipram) were then added for inactivating the microsomes, and water with 0.5% formic acid (30 µL) was subsequently added for improving the chromatographic conditions, keeping the mixtures at 4 °C. The plate was centrifuged at 46,000 g for 30 min at 15 °C and supernatants were taken and analyzed in a UPLC-MS/MS system (UPLC QSM Waters Acquity) using reverse phase Acquity UPLC® HSST3 1.7 μm (2.1 mm × 50 mm, Waters) as the stationary phase, 0.1% formic acid in water (A) / 0.1% formic acid in acetonitrile (B) as the mobile phase, a flow of 0.8 mL min‒1, and the
# (§5) The metabolic stability of the compounds was calculated from the logarithm of the remaining compound at each of the time points studied.
# recombinant mouse sEH = target: T1, recombinant mouse sEH (Mus musculus, UniProt P34914); details: read-out: msEH IC50, average of three replicates
# T1 sequence (P34914 1-554): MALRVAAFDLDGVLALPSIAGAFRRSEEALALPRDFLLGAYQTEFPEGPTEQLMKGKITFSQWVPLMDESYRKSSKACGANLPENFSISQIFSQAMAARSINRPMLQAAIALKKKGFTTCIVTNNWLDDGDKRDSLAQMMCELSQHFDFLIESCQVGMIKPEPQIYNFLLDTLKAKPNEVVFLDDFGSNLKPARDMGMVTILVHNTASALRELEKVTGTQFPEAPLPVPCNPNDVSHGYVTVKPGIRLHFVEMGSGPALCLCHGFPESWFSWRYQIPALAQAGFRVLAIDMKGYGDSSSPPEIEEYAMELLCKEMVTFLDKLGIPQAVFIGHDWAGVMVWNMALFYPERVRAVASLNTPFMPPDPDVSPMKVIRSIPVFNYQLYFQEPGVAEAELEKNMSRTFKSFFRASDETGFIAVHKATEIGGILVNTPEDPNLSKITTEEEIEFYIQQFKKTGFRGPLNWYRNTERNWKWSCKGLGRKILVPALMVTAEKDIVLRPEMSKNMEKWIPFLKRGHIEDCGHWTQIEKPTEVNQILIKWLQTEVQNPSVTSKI
# Protocol: (§6) Human and mouse soluble epoxide hydrolase inhibition assay. The inhibitory activity of
# (§7) the target compounds toward human and mouse sEH was determined by a fluorescence-based
# (§8) assay, using purified recombinant human or mouse sEH proteins and CMNPC as a fluorescent
# (§9) substrate.6 The enzymes were incubated at 30 °C with the inhibitors ([I]final = 0.4-100,000
# (§10) nM) for 5 min in 100 mM sodium phosphate buffer (200 µL, pH 7.4) containing 0.1 mg mL‒1
# (§11) of BSA and 1% of DMSO. The substrate (CMNPC) was then added ([S]final = 5 µM). Activity
# (§12) was assessed by measuring the appearance of the fluorescent 6-methoxynaphthaldehyde
# (§13) (Molecular Devices). Results were obtained by regression analysis from a linear region of the
# (§14) curve and are given as IC50 values, i.e., the concentration of the compound that reduces the
# (§15) sEH activity by 50%. All measurements were performed in triplicate and the mean is
# [3] = Microsomal stability, rat liver microsomes; type: in vitro ADME; details: rat, liver microsomes (pooled), pH 7.4; for remaining at 1 h, 0.05 µM: after 1 h of incubation at 37 °C, read-out: % remaining compound, rat microsomes
# Protocol: as §1, §2, §3, §4, §5
# recombinant human sEH = target: T2, recombinant human sEH (Homo sapiens, UniProt P34913); assay: Human soluble epoxide hydrolase inhibition, fluorescence-based assay (CMNPC substrate); type: biochemical; details: for higher hsEH potency relative to TPPU: ratio of IC50s vs TPPU; for IC50: recombinant human sEH, average of three replicates, read-out: hsEH IC50
# T2 sequence (P34913 1-555): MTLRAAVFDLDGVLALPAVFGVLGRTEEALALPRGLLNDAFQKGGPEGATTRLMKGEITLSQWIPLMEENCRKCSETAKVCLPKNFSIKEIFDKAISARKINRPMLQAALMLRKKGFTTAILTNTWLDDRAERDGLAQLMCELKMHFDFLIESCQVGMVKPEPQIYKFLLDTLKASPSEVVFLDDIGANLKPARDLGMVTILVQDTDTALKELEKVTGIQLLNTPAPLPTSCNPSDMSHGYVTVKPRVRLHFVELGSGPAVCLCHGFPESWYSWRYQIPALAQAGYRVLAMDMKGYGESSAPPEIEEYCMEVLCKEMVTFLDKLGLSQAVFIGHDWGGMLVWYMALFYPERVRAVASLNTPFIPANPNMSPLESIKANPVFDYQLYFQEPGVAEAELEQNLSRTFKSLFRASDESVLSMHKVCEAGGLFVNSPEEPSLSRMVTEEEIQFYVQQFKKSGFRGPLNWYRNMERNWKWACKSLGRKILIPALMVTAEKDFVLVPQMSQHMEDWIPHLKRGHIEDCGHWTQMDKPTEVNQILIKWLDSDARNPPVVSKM
# Protocol: as §6, §7, §8, §9, §10, §11, §12, §13, §14, §15
# recombinant mouse AChE = target: T3, recombinant mouse AChE (Mus musculus, UniProt P21836); assay: Mouse acetylcholinesterase inhibition, Ellman's method; type: biochemical; details: recombinant mouse AChE; mean ± SEM; read-out: mAChE IC50
# T3 construct: purchased Bio-Techne, Milan, Italy
# T3 sequence (P21836 32-614): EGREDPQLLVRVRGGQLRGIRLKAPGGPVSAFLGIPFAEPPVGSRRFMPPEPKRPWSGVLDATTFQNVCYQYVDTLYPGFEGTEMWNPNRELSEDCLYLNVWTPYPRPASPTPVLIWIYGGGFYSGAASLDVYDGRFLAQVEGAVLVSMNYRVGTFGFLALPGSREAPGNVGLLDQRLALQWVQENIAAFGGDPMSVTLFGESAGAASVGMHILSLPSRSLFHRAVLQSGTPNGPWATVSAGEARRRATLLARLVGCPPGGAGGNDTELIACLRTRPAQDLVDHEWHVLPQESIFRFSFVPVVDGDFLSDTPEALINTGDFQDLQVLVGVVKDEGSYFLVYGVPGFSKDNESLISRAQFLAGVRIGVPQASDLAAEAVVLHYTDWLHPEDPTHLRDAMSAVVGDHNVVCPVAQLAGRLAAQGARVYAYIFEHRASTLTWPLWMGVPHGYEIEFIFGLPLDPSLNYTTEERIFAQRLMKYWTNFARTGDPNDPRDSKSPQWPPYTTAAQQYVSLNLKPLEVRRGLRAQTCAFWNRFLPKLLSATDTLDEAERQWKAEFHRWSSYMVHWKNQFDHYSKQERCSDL
# Protocol: (§16) Human and mouse acetylcholinesterase and human butyrylcholinesterase inhibition
# (§17) assay. The inhibitory activity of the target compounds toward recombinant human AChE
# (§18) (Sigma-Aldrich, Milan, Italy), recombinant mouse AChE (Bio-Techne, Milan, Italy) and
# (§19) human serum BChE (Sigma-Aldrich, Milan, Italy) was assessed by Ellman’s method,8 using
# (§20) Stock solutions of the AChEs were prepared by
# (§21) dissolving enzyme lyophilized powder (hAChE) or diluting the enzyme commercial solution
# (§22) (mAChE) in 0.1 M potassium phosphate (pH 8.0) containing 0.1% Triton X-100, whereas the
# (§23) stock solution of hBChE was prepared in 0.1% aq. gelatin and the stock solutions of the
# (§24) compounds to be tested were made in MeOH (2-4 mM). The assay solution consisted of 0.02
# (§25) unit mL‒1 of the enzyme, 340 M 5,5’-dithiobis(2-nitrobenzoic acid), and 550 M of the
# (§26) substrate acetylthiocholine iodide (for AChE assay) or butyrylthiocholine iodide (for BChE
# (§27) assay) in 0.1 M potassium phosphate (pH 8.0). Blank solutions containing all components
# (§28) except the enzymes were prepared to account for the non-enzymatic hydrolysis of the
# (§29) Prior the addition of the substrate, the assay solutions were incubated at 37 °C for 20 min.
# (§30) After the addition of the substrate, cuvettes were rapidly transferred into a Jasco V-530
# (§31) double beam spectrophotometer equipped with thermostated cuvette holders (37 °C), in order
# (§32) for 240 s. For each tested compound, five increasing concentrations were assayed in order to
# (§33) achieve inhibition percentages of 20‒80%. Each concentration was assayed in triplicate. IC50
# (§34) values were calculated from the inhibition plot (% inhibition vs log[inhibitor]) and are
# (§35) expressed as mean ± SEM. Each IC50 value is the average of at least two experiments, each
# [4] = Kinetic aqueous solubility screen (light scattering); details: 1% DMSO / 99% PBS
# Protocol: Aqueous solubility screen. The kinetic aqueous solubility of the target compounds was
# as §2
# Compostela, Spain). Ten mM stock solutions of the tested compounds were serially diluted,
# NEPHELOstar Plus reader (BMG LABTECH). The results were adjusted to a segmented
# linear regression to obtain the maximum concentration in which the compounds were soluble.
# [5] = Microsomal stability, mouse liver microsomes; type: in vitro ADME; details: mouse, liver microsomes (pooled), pH 7.4; for microsomal CLint at 1 h, 0.05 µM / half-life at 1 h, 0.05 µM: 37 °C; for half-life at 1 h, 0.05 µM: read-out: t1/2, mouse microsomes; for remaining at 1 h, 0.05 µM: after 1 h of incubation at 37 °C, read-out: % remaining compound, mouse microsomes
# Protocol: as §1, §2, §3, §4, §5
# recombinant human AChE = target: T4, recombinant human AChE (Homo sapiens, UniProt P22303); type: biochemical; details: for IC50: recombinant human AChE, mean ± SEM, read-out: hAChE IC50
# T4 construct: purchased Sigma-Aldrich, Milan, Italy
# T4 sequence (P22303 32-614): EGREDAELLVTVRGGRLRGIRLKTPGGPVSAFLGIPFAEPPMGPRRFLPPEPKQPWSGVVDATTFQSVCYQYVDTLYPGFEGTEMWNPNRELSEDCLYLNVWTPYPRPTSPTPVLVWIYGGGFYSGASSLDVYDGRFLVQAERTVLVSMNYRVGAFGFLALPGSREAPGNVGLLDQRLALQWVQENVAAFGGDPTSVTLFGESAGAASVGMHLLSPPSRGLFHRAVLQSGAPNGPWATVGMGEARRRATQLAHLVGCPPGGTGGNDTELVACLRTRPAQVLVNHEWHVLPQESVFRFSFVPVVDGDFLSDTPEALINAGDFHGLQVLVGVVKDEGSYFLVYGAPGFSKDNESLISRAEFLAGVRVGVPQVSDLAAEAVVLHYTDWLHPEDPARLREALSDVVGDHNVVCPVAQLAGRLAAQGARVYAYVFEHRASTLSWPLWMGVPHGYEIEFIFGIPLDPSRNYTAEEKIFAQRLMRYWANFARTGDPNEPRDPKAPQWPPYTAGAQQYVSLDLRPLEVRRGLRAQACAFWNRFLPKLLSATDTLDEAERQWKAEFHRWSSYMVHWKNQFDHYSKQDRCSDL
# Protocol: as §16, §17, §18, §19, §20, §21, §22, §23, §24, §25, §26, §27, §28, §29, §30, §31, §32, §33, §34, §35
# human serum BChE = target: T5, human serum BChE (Homo sapiens, UniProt P06276); type: biochemical; details: read-out: hBChE IC50
# T5 construct: human serum BChE (Sigma-Aldrich, Milan, Italy) was assessed by Ellman’s method; purchased Sigma-Aldrich, Milan, Italy; host or cells: human serum
# T5 sequence (P06276 29-602): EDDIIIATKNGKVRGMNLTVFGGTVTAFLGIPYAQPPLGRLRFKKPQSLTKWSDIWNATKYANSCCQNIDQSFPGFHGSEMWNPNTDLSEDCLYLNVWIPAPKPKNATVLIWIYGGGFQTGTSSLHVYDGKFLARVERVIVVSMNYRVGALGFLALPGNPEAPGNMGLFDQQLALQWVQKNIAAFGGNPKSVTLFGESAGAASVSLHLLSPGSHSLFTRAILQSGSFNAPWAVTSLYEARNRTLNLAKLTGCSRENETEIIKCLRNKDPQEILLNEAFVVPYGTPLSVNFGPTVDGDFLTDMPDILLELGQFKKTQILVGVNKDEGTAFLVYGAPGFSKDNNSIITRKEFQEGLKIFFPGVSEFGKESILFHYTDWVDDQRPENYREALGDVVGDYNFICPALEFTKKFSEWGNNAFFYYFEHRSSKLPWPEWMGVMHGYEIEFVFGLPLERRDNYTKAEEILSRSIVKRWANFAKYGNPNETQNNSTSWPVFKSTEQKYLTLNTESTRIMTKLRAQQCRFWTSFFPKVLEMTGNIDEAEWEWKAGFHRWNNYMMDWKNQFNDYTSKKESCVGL
# Protocol: as §16, §17, §18, §19, §20, §21, §22, §23, §24, §25, §26, §27, §28, §29, §30, §31, §32, §33, §34, §35
# SH-SY5Y cells = assay: Cytotoxicity in SH-SY5Y cells, propidium iodide stain; type: cell-based, human; details: for toxicity to SH-SY5Y cells LD50: propidium iodide staining after 24 h of incubation, mean ± SD; for LD50 (SH-SY5Y): supplementary CSV
# Protocol: Cytotoxicity in SH-SY5Y cells. The cytotoxicity of the target compounds was evaluated in
# Minimum Essential Medium / Ham’s-F12 (1:1, v/v) medium (Biowest), supplemented with
# non-essential amino acids, 10% fetal bovine serum, 1 mM glutamine and 50 µg mL‒1
# gentamycin (all reagents from Gibco, Thermo Fisher Scientific). For the experiments, cells
# were seeded at 3 × 10^5 cells mL‒1 (100 µL per well) in 96-well plates (Nunc). After 24 h, the
# test compounds were added concentrated from stock solutions in DMSO and culture medium
# to triplicate wells to obtain the final different concentrations up to 100 µM in 0.1% DMSO.
# Compounds were incubated for further 24 h. At termination, cytotoxicity was analyzed by the
# propidium iodide (PI) fluorescence stain assay. All compounds were tested in three
# independent experiments using different cell passages. The PI assay measures cell death. PI
# enters into the cells with damaged membranes and greatly increases the fluorescence upon
# binding to DNA. PI reagent (Molecular Probes) at the final concentration of 7.5 µg mL‒1 was
# added to the cells and incubated for 1 h. The resulting fluorescence was measured by a Flx-
# death induced by the compounds was calculated from to the fluorescence of treated cells (Ft)
# relative to that of control cells (Fmin) and cells incubated with Triton X100 (Fmax) as the 0%
# and 100% cell death, respectively [% = ((Ft-Fmin)/(Fmax-Fmin)) × 100]. All compounds
# were tested in three independent experiments using different cell passages. LC50 values were
# calculated for each experiment and the results are expressed as mean ± SD.
# [6] = target: PAS of Electrophorus electricus AChE (EeAChE) (Electrophorus electricus, UniProt O42275); details: read-out: KD of propidium for PAS; value assumed for the calculation; ref 11 (Supporting Information); cited from earlier work
# Chain of PAS of Electrophorus electricus AChE (EeAChE) (O42275 24-633): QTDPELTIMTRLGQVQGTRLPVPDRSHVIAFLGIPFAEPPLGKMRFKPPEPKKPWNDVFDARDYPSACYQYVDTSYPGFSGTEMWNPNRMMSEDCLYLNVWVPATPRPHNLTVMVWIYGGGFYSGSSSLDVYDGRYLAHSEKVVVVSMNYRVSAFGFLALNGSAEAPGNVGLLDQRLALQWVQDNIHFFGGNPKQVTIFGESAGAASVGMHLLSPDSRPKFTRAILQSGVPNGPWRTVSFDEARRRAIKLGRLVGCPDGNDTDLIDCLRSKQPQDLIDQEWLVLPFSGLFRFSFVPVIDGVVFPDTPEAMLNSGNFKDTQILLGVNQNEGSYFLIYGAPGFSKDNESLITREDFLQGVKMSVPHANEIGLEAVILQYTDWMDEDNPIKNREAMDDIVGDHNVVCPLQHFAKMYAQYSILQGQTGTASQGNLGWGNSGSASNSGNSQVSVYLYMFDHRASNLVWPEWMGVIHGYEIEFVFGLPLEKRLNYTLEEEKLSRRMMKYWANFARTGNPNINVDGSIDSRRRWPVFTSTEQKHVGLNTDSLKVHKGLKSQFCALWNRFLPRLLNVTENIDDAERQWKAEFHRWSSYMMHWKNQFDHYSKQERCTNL
# [7] = 37 °C, read-out: t1/2, human microsomes
# [8] = 37 °C, read-out: t1/2, rat microsomes
# [9] = human serum BChE, mean ± SEM, n.a. = not active, % inhibition <10% at 100 μM
Structure (SMILES),BBB permeation class [1],Papp [1],microsomal CLint at 1 h ([2]; 37 °C),remaining at 1 h [2],IC50 (recombinant mouse sEH),"microsomal CLint at 1 h, 0.05 µM ([3]; 37 °C)","remaining at 1 h, 0.05 µM [3]",IC50 (recombinant human sEH),IC50 (recombinant mouse AChE),solubility at 2 h [4],"microsomal CLint at 1 h, 0.05 µM [5]","half-life at 1 h, 0.05 µM [5]","remaining at 1 h, 0.05 µM [5]",IC50 (recombinant human AChE),IC50 (human serum BChE; [9]),toxicity to SH-SY5Y cells LD50 (SH-SY5Y cells),LD50 (SH-SY5Y) (SH-SY5Y cells),also measured
"O=C(Nc1ccc(OC(F)(F)F)cc1)NC1CCN(C(=O)CCNc2c3c(nc4cc(Cl)ccc24)CCCC3)CC1 [12a, 1-{1-{3-[(6-Chloro-1,2,3,4-tetrahydroacridin-9-yl)amino]propanoyl}piperidin-4-yl}-3-[4-(trifluoromethoxy)phenyl]urea]","CNS+ (High permeation, CNS+: Pe > 5.2)",9.2 ± 0.2 ×10⁻⁶ cm/s,57 µL/min/mg,4%,12.1 nM,56 µL/min/mg,4%,0.4 nM,35.4 ± 2 nM,42.6 µM,109 µL/min/mg,6 min,1%,14.5 ± 0.3 nM,947 ± 6 nM,92.8 ± 52.3 µM,92.8 ± 52.3 ?M,"half-life [2, 7]: 12 min; half-life at 0.05 µM [3, 8]: 12 min; higher hsEH potency relative to TPPU (recombinant human sEH): 9 fold"
"O=C(Nc1ccc(OC(F)(F)F)cc1)NC1CCN(C(=O)CCCNc2c3c(nc4cc(Cl)ccc24)CCCC3)CC1 [12b, 1-{1-{4-[(6-Chloro-1,2,3,4-tetrahydroacridin-9-yl)amino]butanoyl}piperidin-4-yl}-3-[4-(trifluoromethoxy)phenyl]urea]","CNS+ (High permeation, CNS+: Pe > 5.2)",9.1 ± 0.1 ×10⁻⁶ cm/s,19 µL/min/mg,34%,15 nM,69 µL/min/mg,2%,1 nM,4.01 ± 0.24 nM,13.7 µM,78 µL/min/mg,9 min,1%,2.71 ± 0.06 nM,416 ± 35 nM,>100 µM,> 100 ?M,"half-life at 1 h [2, 7]: 36 min; half-life at 1 h, 0.05 µM [3, 8]: 10 min; hAChE potency relative to 6-chlorotacrine (recombinant human AChE): 5 fold"
"CC1=C[C@H]2Cc3nc4cc(Cl)ccc4c(N)c3[C@@H](C1)C2 [(+)-3, (+)-huprine Y, reference compound]",,,,,> 50000 nM,,,> 50000 nM,474 ± 22 nM,,,,,,,,,IC50 (human serum BChE): 170 ± 17 nM
"CC1=C[C@H]2Cc3nc4cc(Cl)ccc4c(NCCCCC(=O)N4CCC(NC(=O)Nc5ccc(OC(F)(F)F)cc5)CC4)c3[C@@H](C1)C2 [(+)-15, (+)-(7R,11R)-1-{1-{5-[(3-Chloro-6,7,10,11-tetrahydro-9-methyl-7,11-methanocycloocta[b]quinolin-12-yl)amino]pentanoyl}piperidin-4-yl}-3-[4-(trifluoromethoxy)phenyl]urea]",,,,,14.5 nM,,,3.1 nM,102 ± 18 nM,,,,,1660 ± 450 nM,179 ± 26 nM,,,
"CC1=C[C@@H]2Cc3nc4cc(Cl)ccc4c(N)c3[C@H](C1)C2 [(−)-3, (−)-huprine Y, reference compound]",,,,,> 50000 nM,,,41000 nM,0.62 ± 0.03 nM,,,,,,,,,IC50 (human serum BChE): 222 ± 17 nM
"CC1=C[C@@H]2Cc3nc4cc(Cl)ccc4c(NCCCCC(=O)N4CCC(NC(=O)Nc5ccc(OC(F)(F)F)cc5)CC4)c3[C@H](C1)C2 [(−)-15, (−)-(7S,11S)-1-{1-{5-[(3-Chloro-6,7,10,11-tetrahydro-9-methyl-7,11-methanocycloocta[b]quinolin-12-yl)amino]pentanoyl}piperidin-4-yl}-3-[4-(trifluoromethoxy)phenyl]urea]","CNS+ (High permeation, CNS+: Pe > 5.2)",9.9 ± 0.3 ×10⁻⁶ cm/s,144 µL/min/mg,1%,34.3 nM,54 µL/min/mg,4%,0.4 nM,2.61 ± 0.16 nM,5.6 µM,172 µL/min/mg,4 min,0.4%,1.94 ± 0.67 nM,615 ± 34 nM,>100 µM,> 100 ?M,"half-life at 1 h [2, 7]: 5 min; half-life at 1 h, 0.05 µM [3, 8]: 13 min; hsEH potency relative to its enantiomer (recombinant human sEH; enantioselectivity): 8 fold; higher hsEH potency relative to TPPU (recombinant human sEH): 9 fold; hAChE potency relative to its enantiomer (recombinant human AChE; enantioselectivity): 850 fold"
"CN1C(C(=O)Nc2ccccn2)=C(O)c2ccccc2S1(=O)=O [Piroxicam, reference compound]",,2.3 ± 0.1 ×10⁻⁶ cm/s,,,,,,,,,,,,,,,,
"Nc1c2c(nc3cc(Cl)ccc13)CCCC2 [compound 2, 6-chlorotacrine, reference compound]",,,,,> 50000 nM,,,49100 nM,19.8 ± 0.7 nM,,,,,,,,,
"CC[N+](C)(CC)CCC[n+]1c(-c2ccccc2)c2cc(N)ccc2c2ccc(N)cc21 [propidium, propidium iodide]",,,,,,,,,,,,,,,,,,Kd [6]: 700 nM
